Holding throughout (format): cell-based
Common to all, as to details: compounds at 50 nM and 500 nM

The target in one assay is T1, IKZF1 (Homo sapiens, UniProt Q13422+Q96SW2).
T1 construct: The supernatant was aspirated as the extracted total cell protein; endogenous in cells; host or cells: human peripheral blood mononuclear cells (hPBMCs)
In words: Western blot degradation of IKZF1 in hPBMCs (24 h). In short, it runs like this: (§1)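 In this assay, each compound was incubated with human PBMCs for 24 h at 50 nM and 500 nM. Target levels were measured by Western blot densitometry normalised to an internal control.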

The next assay has as its target T2, GSPT1 (Homo sapiens, UniProt P15170+Q96SW2).
T2 construct: The supernatant was aspirated as the extracted total cell protein; endogenous in cells; host or cells: human peripheral blood mononuclear cells (hPBMCs)
The assay can be described thus: Western blot degradation of GSPT1 in hPBMCs (24 h). The method in brief: as §1
A general note: Immunoblotting shows a protein as a band on a membrane.

In the next assay the target is T3, IKZF3 (Homo sapiens, UniProt Q96SW2+Q9UKT9).
T3 construct: The supernatant was aspirated as the extracted total cell protein; endogenous in cells; host or cells: human peripheral blood mononuclear cells (hPBMCs)
In words: Western blot degradation of IKZF3 in hPBMCs (24 h). The method in brief:
as §1

For another assay, the target named is T4, WEE1 (Homo sapiens, UniProt P30291+Q96SW2).
T4 construct: The supernatant was aspirated as the extracted total cell protein; endogenous in cells; host or cells: human peripheral blood mononuclear cells (hPBMCs)
The assay can be described thus: Western blot degradation of WEE1 in hPBMCs (24 h). In short, it runs like this: as §1

The target in a further assay is T5, CK1α (Homo sapiens, UniProt P48729+Q96SW2).
T5 construct: The supernatant was aspirated as the extracted total cell protein; endogenous in cells; host or cells: human peripheral blood mononuclear cells (hPBMCs)
The assay can be described thus: Western blot degradation of CK1α in hPBMCs (24 h). The method in brief:
as §1

For the next assay, the target named is T6, IKZF2 (Homo sapiens, UniProt Q96SW2+Q9UKS7).
T6 construct: The supernatant was aspirated as the extracted total cell protein; endogenous in cells; host or cells: human peripheral blood mononuclear cells (hPBMCs)
The assay can be described thus: Western blot degradation of IKZF2 in hPBMCs (24 h). In short, it runs like this: as §1

T3 sequence (Q9UKT9 whole entry): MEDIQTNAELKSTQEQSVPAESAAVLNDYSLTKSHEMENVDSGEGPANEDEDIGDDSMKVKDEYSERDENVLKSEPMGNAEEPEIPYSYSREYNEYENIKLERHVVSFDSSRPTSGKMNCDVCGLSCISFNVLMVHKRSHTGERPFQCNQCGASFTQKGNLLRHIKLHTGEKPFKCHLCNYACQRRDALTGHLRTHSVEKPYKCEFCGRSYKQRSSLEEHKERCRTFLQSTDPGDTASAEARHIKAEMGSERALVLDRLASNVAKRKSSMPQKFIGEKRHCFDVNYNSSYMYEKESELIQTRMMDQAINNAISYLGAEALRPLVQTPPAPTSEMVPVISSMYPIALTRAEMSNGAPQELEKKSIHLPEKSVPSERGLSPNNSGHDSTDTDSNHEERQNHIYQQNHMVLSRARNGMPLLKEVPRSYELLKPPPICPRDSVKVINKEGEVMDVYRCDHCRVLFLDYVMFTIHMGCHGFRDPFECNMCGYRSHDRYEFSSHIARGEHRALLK
T3 sequence (Q96SW2 whole entry): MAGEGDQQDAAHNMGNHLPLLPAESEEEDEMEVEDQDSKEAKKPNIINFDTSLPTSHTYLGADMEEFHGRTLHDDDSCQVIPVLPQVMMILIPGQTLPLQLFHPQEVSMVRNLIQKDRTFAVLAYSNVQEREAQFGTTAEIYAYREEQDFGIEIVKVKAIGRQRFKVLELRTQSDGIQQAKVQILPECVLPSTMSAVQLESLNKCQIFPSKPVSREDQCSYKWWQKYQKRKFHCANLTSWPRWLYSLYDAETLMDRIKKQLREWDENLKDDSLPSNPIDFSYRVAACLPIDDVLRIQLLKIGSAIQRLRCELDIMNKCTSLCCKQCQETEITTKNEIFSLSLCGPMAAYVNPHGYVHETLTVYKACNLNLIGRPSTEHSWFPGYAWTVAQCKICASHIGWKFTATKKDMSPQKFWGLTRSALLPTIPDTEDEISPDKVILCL
T3 sequence (Q16531 whole entry partner): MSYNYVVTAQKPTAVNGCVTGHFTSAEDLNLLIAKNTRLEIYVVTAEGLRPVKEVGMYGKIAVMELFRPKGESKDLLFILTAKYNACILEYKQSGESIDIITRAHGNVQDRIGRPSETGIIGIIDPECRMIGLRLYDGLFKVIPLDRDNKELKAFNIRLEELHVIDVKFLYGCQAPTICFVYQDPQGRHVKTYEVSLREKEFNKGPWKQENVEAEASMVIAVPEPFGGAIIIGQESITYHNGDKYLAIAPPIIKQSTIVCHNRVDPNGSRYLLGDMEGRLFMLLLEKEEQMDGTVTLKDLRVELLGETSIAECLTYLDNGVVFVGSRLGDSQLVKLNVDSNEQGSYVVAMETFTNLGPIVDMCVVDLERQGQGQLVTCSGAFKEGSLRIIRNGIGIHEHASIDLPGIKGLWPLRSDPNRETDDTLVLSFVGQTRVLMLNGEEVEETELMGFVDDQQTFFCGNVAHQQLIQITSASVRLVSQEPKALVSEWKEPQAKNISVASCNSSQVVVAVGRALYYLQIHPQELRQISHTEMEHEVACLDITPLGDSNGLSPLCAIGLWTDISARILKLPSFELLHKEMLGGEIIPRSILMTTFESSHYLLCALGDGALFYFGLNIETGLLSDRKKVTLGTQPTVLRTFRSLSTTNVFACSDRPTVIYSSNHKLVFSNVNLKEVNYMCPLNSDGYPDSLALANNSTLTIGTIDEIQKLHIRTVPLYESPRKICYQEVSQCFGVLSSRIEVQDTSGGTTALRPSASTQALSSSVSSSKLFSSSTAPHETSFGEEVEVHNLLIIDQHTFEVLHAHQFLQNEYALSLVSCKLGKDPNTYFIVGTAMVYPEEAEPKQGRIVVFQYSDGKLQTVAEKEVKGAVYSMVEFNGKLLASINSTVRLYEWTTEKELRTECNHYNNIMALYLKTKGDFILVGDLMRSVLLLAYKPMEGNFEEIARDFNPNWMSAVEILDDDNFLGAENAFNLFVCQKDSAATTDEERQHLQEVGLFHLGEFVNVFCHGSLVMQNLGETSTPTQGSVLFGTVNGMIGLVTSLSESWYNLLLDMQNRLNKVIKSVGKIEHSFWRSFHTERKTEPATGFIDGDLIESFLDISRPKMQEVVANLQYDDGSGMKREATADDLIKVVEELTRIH
T4 sequence (P30291 whole entry): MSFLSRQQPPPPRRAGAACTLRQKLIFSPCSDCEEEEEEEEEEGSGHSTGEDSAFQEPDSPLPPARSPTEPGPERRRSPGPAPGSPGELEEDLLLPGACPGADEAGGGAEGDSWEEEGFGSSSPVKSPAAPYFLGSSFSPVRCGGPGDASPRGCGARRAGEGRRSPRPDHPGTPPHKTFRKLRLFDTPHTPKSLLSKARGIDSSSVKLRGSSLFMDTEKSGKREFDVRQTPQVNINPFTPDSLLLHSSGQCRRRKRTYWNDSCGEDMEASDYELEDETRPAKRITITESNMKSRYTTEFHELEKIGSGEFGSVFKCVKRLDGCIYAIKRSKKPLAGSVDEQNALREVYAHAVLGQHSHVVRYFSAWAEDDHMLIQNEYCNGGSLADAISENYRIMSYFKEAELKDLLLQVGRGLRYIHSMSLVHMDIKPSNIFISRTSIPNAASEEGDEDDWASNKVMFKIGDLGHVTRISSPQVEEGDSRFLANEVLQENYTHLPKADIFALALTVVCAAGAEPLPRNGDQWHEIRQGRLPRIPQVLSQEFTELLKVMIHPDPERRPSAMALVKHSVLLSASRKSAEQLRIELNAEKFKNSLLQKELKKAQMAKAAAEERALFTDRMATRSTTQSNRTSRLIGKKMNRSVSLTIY
T4 sequence (Q96SW2 whole entry): as the sequence (Q96SW2 whole entry) above
T4 sequence (Q16531 whole entry partner): as the sequence (Q16531 whole entry partner) above
T2 sequence (P15170 whole entry): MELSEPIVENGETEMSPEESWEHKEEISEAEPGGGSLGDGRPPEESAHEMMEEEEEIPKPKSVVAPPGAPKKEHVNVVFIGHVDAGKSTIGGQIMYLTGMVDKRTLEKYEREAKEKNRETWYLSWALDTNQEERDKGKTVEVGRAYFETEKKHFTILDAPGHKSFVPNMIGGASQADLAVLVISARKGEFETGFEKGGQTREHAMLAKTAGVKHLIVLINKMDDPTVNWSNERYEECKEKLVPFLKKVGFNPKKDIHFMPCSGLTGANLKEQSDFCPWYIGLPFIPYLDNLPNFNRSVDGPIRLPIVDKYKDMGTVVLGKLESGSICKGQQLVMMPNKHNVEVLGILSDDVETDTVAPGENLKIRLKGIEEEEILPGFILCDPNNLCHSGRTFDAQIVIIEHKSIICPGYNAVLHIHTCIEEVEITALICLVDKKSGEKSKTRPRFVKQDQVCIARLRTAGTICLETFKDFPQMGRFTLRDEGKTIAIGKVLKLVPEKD
T2 sequence (Q96SW2 whole entry): as the sequence (Q96SW2 whole entry) above
T2 sequence (Q16531 whole entry partner): as the sequence (Q16531 whole entry partner) above
T5 sequence (P48729 whole entry): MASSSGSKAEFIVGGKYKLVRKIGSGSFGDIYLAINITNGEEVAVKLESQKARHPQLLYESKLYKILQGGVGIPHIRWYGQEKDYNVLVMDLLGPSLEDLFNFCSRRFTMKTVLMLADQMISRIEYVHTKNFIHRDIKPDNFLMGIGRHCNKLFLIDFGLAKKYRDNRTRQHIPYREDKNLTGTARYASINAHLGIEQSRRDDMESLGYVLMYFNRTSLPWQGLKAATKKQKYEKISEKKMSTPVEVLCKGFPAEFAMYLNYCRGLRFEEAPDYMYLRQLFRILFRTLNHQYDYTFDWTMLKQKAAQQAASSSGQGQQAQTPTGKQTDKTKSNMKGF
T5 sequence (Q96SW2 whole entry): as the sequence (Q96SW2 whole entry) above
T5 sequence (Q16531 whole entry partner): as the sequence (Q16531 whole entry partner) above
T1 sequence (Q13422 whole entry): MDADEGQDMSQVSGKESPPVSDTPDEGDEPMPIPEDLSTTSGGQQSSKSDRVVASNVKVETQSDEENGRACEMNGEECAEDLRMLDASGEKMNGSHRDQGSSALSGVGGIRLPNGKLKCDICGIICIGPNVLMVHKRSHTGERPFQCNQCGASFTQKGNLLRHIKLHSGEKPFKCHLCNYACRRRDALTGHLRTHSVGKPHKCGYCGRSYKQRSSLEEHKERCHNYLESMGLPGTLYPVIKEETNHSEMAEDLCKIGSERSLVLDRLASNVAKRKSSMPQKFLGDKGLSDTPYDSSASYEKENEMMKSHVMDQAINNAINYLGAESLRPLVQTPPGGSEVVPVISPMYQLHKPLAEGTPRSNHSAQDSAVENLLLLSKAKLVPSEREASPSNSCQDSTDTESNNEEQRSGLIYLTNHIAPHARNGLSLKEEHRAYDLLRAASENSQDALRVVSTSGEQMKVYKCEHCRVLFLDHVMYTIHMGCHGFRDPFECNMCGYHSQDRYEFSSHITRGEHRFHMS
T1 sequence (Q96SW2 whole entry): as the sequence (Q96SW2 whole entry) above
T1 sequence (Q16531 whole entry partner): as the sequence (Q16531 whole entry partner) above

On to `O=C1CCN(N2Cc3cc(CN4CCN(c5nc(Cl)nc6c5SCC6)CC4)ccc3C2=O)C(=O)N1` [GT-08439, 1-(5-((4-(2-chloro-6,7-dihydrothieno[3,2-d]pyrimidin-4-yl)piperazin-1-yl)methyl)-1-oxoisoindolin-2-yl)dihydropyrimidine-2,4(1H,3H)-dione], for which the “IKZF1 substrate protein remaining %” value on IKZF1 is reported as “A (0% ≤ substrate protein remaining % ≤80%)”. In addition, the “GSPT1 substrate protein remaining %” value on GSPT1 is recorded as “A (0% ≤ substrate protein remaining % ≤80%)”. For the same molecule, the “IKZF3 substrate protein remaining %” value at IKZF3 was “A (0% ≤ substrate protein remaining % ≤80%)”. On WEE1, the “WEE1 substrate protein remaining %” value is given as “A (0% ≤ substrate protein remaining % ≤80%)”. Moreover, the “CK1α substrate protein remaining %” value at CK1α is “B (80%< substrate protein remaining % ≤100%)”. For the same molecule, the “IKZF2 substrate protein remaining %” value on IKZF2 was “B (80%< substrate protein remaining % ≤100%)”.
As to `O=C1CCN(N2Cc3cc(CN4CCN(c5ncnc6ccsc56)CC4)ccc3C2=O)C(=O)N1` [GT-08443, 1-(1-oxo-5-((4-(thieno[3,2-d]pyrimidin-4-yl)piperazin-1-yl)methyl)isoindolin-2-yl)dihydropyrimidine-2,4(1H,3H)-dione], at IKZF1, the “IKZF1 substrate protein remaining %” value was “B (80%< substrate protein remaining % ≤100%)”. Further, at GSPT1, the “GSPT1 substrate protein remaining %” value is recorded as “B (80%< substrate protein remaining % ≤100%)”. The “IKZF3 substrate protein remaining %” value on IKZF3 was “B (80%< substrate protein remaining % ≤100%)”. On WEE1, the “WEE1 substrate protein remaining %” value is listed as “A (0% ≤ substrate protein remaining % ≤80%)”. In addition, the “CK1α substrate protein remaining %” value at CK1α is given as “B (80%< substrate protein remaining % ≤100%)”. The “IKZF2 substrate protein remaining %” value on IKZF2 is on record as “B (80%< substrate protein remaining % ≤100%)”.
Consider `O=C1CCN(N2Cc3cc(CN4CCN(c5nc(Cl)nc6ccsc56)CC4)ccc3C2=O)C(=O)N1` [GT-08444, 1-(5-((4-(2-chlorothieno[3,2-d]pyrimidin-4-yl)piperazin-1-yl)methyl)-1-oxoisoindolin-2-yl)dihydropyrimidine-2,4(1H,3H)-dione], for which the “IKZF1 substrate protein remaining %” value on IKZF1 is given as “B (80%< substrate protein remaining % ≤100%)”. Also, at GSPT1, the “GSPT1 substrate protein remaining %” value is “B (80%< substrate protein remaining % ≤100%)”. For the same molecule, on IKZF3, the “IKZF3 substrate protein remaining %” value is “B (80%< substrate protein remaining % ≤100%)”. The “WEE1 substrate protein remaining %” value at WEE1 is reported as “A (0% ≤ substrate protein remaining % ≤80%)”. On CK1α, the “CK1α substrate protein remaining %” value is “B (80%< substrate protein remaining % ≤100%)”. The “IKZF2 substrate protein remaining %” value at IKZF2 is given as “B (80%< substrate protein remaining % ≤100%)”.
Take `O=C1CCN(N2Cc3cc(CN4CCN(c5nc(N6CCOCC6)nc6ccsc56)CC4)ccc3C2=O)C(=O)N1` [GT-08446, 1-(5-((4-(2-morpholinothieno[3,2-d]pyrimidin-4-yl)piperazin-1-yl)methyl)-1-oxoisoindolin-2-yl)dihydropyrimidine-2,4(1H,3H)-dione]: at IKZF1, the “IKZF1 substrate protein remaining %” value was “B (80%< substrate protein remaining % ≤100%)”. The “GSPT1 substrate protein remaining %” value on GSPT1 is listed as “A (0% ≤ substrate protein remaining % ≤80%)”. The “IKZF3 substrate protein remaining %” value on IKZF3 is on record as “A (0% ≤ substrate protein remaining % ≤80%)”. The “WEE1 substrate protein remaining %” value on WEE1 is reported as “B (80%< substrate protein remaining % ≤100%)”. Further, on CK1α, the “CK1α substrate protein remaining %” value is reported as “B (80%< substrate protein remaining % ≤100%)”. In addition, the “IKZF2 substrate protein remaining %” value on IKZF2 was “B (80%< substrate protein remaining % ≤100%)”.
Turning to `O=C1CCN(N2C(=O)c3ccc(CN4CCN(c5nc(Cl)nc6c5SCC6)CC4)cc3C2=O)C(=O)N1` [GT-08448, 5-((4-(2-chloro-6,7-dihydrothieno[3,2-d]pyrimidin-4-yl)piperazin-1-yl)methyl)-2-(2,4-dioxotetrahydropyrimidin-1(2H)-yl)isoindoline-1,3-dione], the “IKZF1 substrate protein remaining %” value on IKZF1 is “B (80%< substrate protein remaining % ≤100%)”. Moreover, the “GSPT1 substrate protein remaining %” value on GSPT1 is listed as “A (0% ≤ substrate protein remaining % ≤80%)”. For the same molecule, the “IKZF3 substrate protein remaining %” value at IKZF3 is listed as “B (80%< substrate protein remaining % ≤100%)”. Further, the “WEE1 substrate protein remaining %” value at WEE1 is “B (80%< substrate protein remaining % ≤100%)”. Also, the “CK1α substrate protein remaining %” value on CK1α is “B (80%< substrate protein remaining % ≤100%)”. The “IKZF2 substrate protein remaining %” value at IKZF2 is recorded as “B (80%< substrate protein remaining % ≤100%)”.
In the case of `O=C1CCN(N2C(=O)c3ccc(CN4CCN(c5nc(N6CCOCC6)nc6c5SCC6)CC4)cc3C2=O)C(=O)N1` [GT-08450, 2-(2,4-dioxotetrahydropyrimidin-1(2H)-yl)-5-((4-(2-morpholino-6,7-dihydrothieno[3,2-d]pyrimidin-4-yl)piperazin-1-yl)methyl)isoindoline-1,3-dione], at IKZF1, the “IKZF1 substrate protein remaining %” value was “B (80%< substrate protein remaining % ≤100%)”. Further, on GSPT1, the “GSPT1 substrate protein remaining %” value was “A (0% ≤ substrate protein remaining % ≤80%)”. The “IKZF3 substrate protein remaining %” value at IKZF3 is on record as “B (80%< substrate protein remaining % ≤100%)”. Also, the “WEE1 substrate protein remaining %” value on WEE1 was “B (80%< substrate protein remaining % ≤100%)”. Moreover, the “CK1α substrate protein remaining %” value at CK1α is given as “B (80%< substrate protein remaining % ≤100%)”. At IKZF2, the “IKZF2 substrate protein remaining %” value is “B (80%< substrate protein remaining % ≤100%)”.
For the molecule `O=C1CCN(N2C(=O)c3ccc(CN4CCN(c5nc6c(c(N7CCOCC7)n5)SCC6)CC4)cc3C2=O)C(=O)N1` [GT-08451, 2-(2,4-dioxotetrahydropyrimidin-1(2H)-yl)-5-((4-(4-morpholino-6,7-dihydrothieno[3,2-d]pyrimidin-2-yl)piperazin-1-yl)methyl)isoindoline-1,3-dione], the “IKZF1 substrate protein remaining %” value on IKZF1 was “B (80%< substrate protein remaining % ≤100%)”. At GSPT1, the “GSPT1 substrate protein remaining %” value is “B (80%< substrate protein remaining % ≤100%)”. Moreover, the “IKZF3 substrate protein remaining %” value on IKZF3 is “A (0% ≤ substrate protein remaining % ≤80%)”. Moreover, the “WEE1 substrate protein remaining %” value on WEE1 is reported as “B (80%< substrate protein remaining % ≤100%)”. Besides, the “CK1α substrate protein remaining %” value on CK1α is “A (0% ≤ substrate protein remaining % ≤80%)”. Besides, at IKZF2, the “IKZF2 substrate protein remaining %” value is on record as “B (80%< substrate protein remaining % ≤100%)”.
Consider `O=C1CCN(N2C(=O)c3ccc(CN4CCN(c5ncnc6ccsc56)CC4)cc3C2=O)C(=O)N1` [GT-08452, 2-(2,4-dioxotetrahydropyrimidin-1(2H)-yl)-5-((4-(thieno[3,2-d]pyrimidin-4-yl)piperazin-1-yl)methyl)isoindoline-1,3-dione], for which the “IKZF1 substrate protein remaining %” value at IKZF1 was “A (0% ≤ substrate protein remaining % ≤80%)”. Besides, the “GSPT1 substrate protein remaining %” value on GSPT1 is listed as “B (80%< substrate protein remaining % ≤100%)”. Also, the “IKZF3 substrate protein remaining %” value on IKZF3 is on record as “A (0% ≤ substrate protein remaining % ≤80%)”. The “WEE1 substrate protein remaining %” value at WEE1 was “A (0% ≤ substrate protein remaining % ≤80%)”. In addition, on CK1α, the “CK1α substrate protein remaining %” value is reported as “A (0% ≤ substrate protein remaining % ≤80%)”. The “IKZF2 substrate protein remaining %” value on IKZF2 is reported as “B (80%< substrate protein remaining % ≤100%)”.

The record behind these values is patent publication US20260356819A1, “OXOISOINDOLINYL-SUBSTITUTED […] DERIVATIVE AND USE THEREOF” (GLUETACS THERAPEUTICS (SHANGHAI) CO., LTD., priority 2023, published 2026).
